Measurements taken from ChEMBL document CHEMBL3885861, “Open TG-GATES”.

Species on record: Rattus norvegicus
Experiment: Open TG-GATES - Regimen: Single
Type: toxicity, organism-based, Sprague-Dawley
Parameters: regimen Single, gender Male, age 6 weeks
Details: in vivo, po, 100 mg/kg, route gavage, dose level Low; for APTT / Bas / Eos / Fbg / Hb / Ht / Lym / MCH / MCHC / MCV / Mono / Neu / PT / Plat / RBC / Ret / WBC: tissue Blood; for KIDNEY_L / KIDNEY_R / KIDNEY_TOTAL: tissue Kidney; for LIVER: tissue Liver; for A/G / ALP / ALT / AST / BUN / CRE / Ca / Cl / DBIL / GLC / IP / K / LDH / Na / PL / RALB / TBIL / TC / TG / TP / gamma-GTP: tissue Plasma

Which TERMINAL_BW (3 h) does the source give for CNC(=C[N+](=O)[O-])NCCSCc1ccc(CN(C)C)o1 [RANITIDINE] here?
The TERMINAL_BW was 216.8 g.

What about the APTT (3 h) of the same molecule?
The APTT was 19.1 s.

And the Bas (3 h)?
Its Bas is 0%.

And the Eos (3 h)?
The Eos was 1%.

And the Fbg (3 h)?
Its Fbg is 225.4 mg/dL.

What about the Hb (3 h) of the same molecule?
Its Hb is 13.7 g/dL.

And the Ht (3 h)?
Its Ht is 39.7%.

What about the Lym (3 h) of the same molecule?
Its Lym is 76.8%.

What about the MCH (3 h) of the same molecule?
The MCH was 22.3 pg.

What about the MCHC (3 h) of the same molecule?
Its MCHC is 34.5%.

And the MCV (3 h)?
The MCV was 64.5 fL.

And the Mono (3 h)?
The Mono was 2.8%.

What about the Neu (3 h) of the same molecule?
Its Neu is 15.2%.

And the PT (3 h)?
Its PT is 12.1 s.

And the Plat (3 h)?
Its Plat is 118 x10_4/uL.

And the RBC (3 h)?
The RBC was 616 x10_4/ul.

And the Ret (3 h)?
Its Ret is 7.4%.

And the WBC (3 h)?
Its WBC is 87.6 x10_2/uL.

And the KIDNEY_L (3 h)?
The KIDNEY_L was 1 g.

What about the KIDNEY_R (3 h) of the same molecule?
Its KIDNEY_R is 1 g.

What about the KIDNEY_TOTAL (3 h) of the same molecule?
The KIDNEY_TOTAL was 2 g.

And the LIVER (3 h)?
The LIVER was 10.3 g.

And the A/G (3 h)?
The A/G was 1.6.

What about the ALP (3 h) of the same molecule?
Its ALP is 1082.6 IU/L.

And the ALT (3 h)?
Its ALT is 38.2 IU/L.

And the AST (3 h)?
Its AST is 66.6 IU/L.

And the BUN (3 h)?
Its BUN is 11.4 mg/dL.

What about the CRE (3 h) of the same molecule?
The CRE was 0.4 mg/dL.

And the Ca (3 h)?
Its Ca is 10.7 mg/dL.

What about the Cl (3 h) of the same molecule?
The Cl was 103.8 meq/L.

And the DBIL (3 h)?
The DBIL was 0.078 mg/dL.

And the GLC (3 h)?
The GLC was 190.6 mg/dL.

What about the IP (3 h) of the same molecule?
Its IP is 8.7 mg/dL.

And the K (3 h)?
Its K is 3.7 meq/L.

What about the LDH (3 h) of the same molecule?
Its LDH is 153 IU/L.

And the Na (3 h)?
Its Na is 141 meq/L.

What about the PL (3 h) of the same molecule?
Its PL is 137.8 mg/dL.

And the RALB (3 h)?
Its RALB is 3.4 g/dL.

And the TBIL (3 h)?
The TBIL was 0.1 mg/dL.

And the TC (3 h)?
Its TC is 73.2 mg/dL.

What about the TG (3 h) of the same molecule?
The TG was 57.4 mg/dL.

What about the TP (3 h) of the same molecule?
The TP was 5.6 g/dL.

And the gamma-GTP (3 h)?
Its gamma-GTP is 1.2 IU/L.

And the TERMINAL_BW (6 h)?
Its TERMINAL_BW is 216.3 g.

And the APTT (6 h)?
The APTT was 17.7 s.

And the Bas (6 h)?
The Bas was 0%.

And the Eos (6 h)?
Its Eos is 0.6%.

What about the Fbg (6 h) of the same molecule?
The Fbg was 229.6 mg/dL.

What about the Hb (6 h) of the same molecule?
Its Hb is 12.9 g/dL.

And the Ht (6 h)?
Its Ht is 37.1%.

And the Lym (6 h)?
Its Lym is 73.2%.

And the MCH (6 h)?
Its MCH is 22 pg.

And the MCHC (6 h)?
Its MCHC is 34.8%.

And the MCV (6 h)?
The MCV was 63.2 fL.

What about the Mono (6 h) of the same molecule?
Its Mono is 2.2%.

And the Neu (6 h)?
The Neu was 19.6%.

And the PT (6 h)?
Its PT is 12.3 s.

What about the Plat (6 h) of the same molecule?
Its Plat is 118.8 x10_4/uL.

And the RBC (6 h)?
The RBC was 588 x10_4/ul.

And the Ret (6 h)?
Its Ret is 7.3%.

And the WBC (6 h)?
The WBC was 96.3 x10_2/uL.

What about the KIDNEY_L (6 h) of the same molecule?
The KIDNEY_L was 1 g.

What about the KIDNEY_R (6 h) of the same molecule?
Its KIDNEY_R is 1 g.

What about the KIDNEY_TOTAL (6 h) of the same molecule?
The KIDNEY_TOTAL was 2 g.

And the LIVER (6 h)?
Its LIVER is 9.3 g.

What about the A/G (6 h) of the same molecule?
Its A/G is 1.7.

What about the ALP (6 h) of the same molecule?
Its ALP is 929.4 IU/L.

What about the ALT (6 h) of the same molecule?
The ALT was 34 IU/L.

What about the AST (6 h) of the same molecule?
Its AST is 66.4 IU/L.

What about the BUN (6 h) of the same molecule?
The BUN was 9.6 mg/dL.

And the CRE (6 h)?
The CRE was 0.4 mg/dL.

And the Ca (6 h)?
Its Ca is 10.5 mg/dL.

And the Cl (6 h)?
The Cl was 103.4 meq/L.

And the DBIL (6 h)?
Its DBIL is 0.074 mg/dL.

And the GLC (6 h)?
The GLC was 198 mg/dL.

And the IP (6 h)?
Its IP is 8.6 mg/dL.

And the K (6 h)?
The K was 3.8 meq/L.

What about the LDH (6 h) of the same molecule?
The LDH was 168.8 IU/L.

What about the Na (6 h) of the same molecule?
The Na was 140.4 meq/L.

What about the PL (6 h) of the same molecule?
The PL was 134.2 mg/dL.

And the RALB (6 h)?
The RALB was 3.4 g/dL.

And the TBIL (6 h)?
Its TBIL is 0.1 mg/dL.

What about the TC (6 h) of the same molecule?
Its TC is 73 mg/dL.

What about the TG (6 h) of the same molecule?
The TG was 52.8 mg/dL.

And the TP (6 h)?
The TP was 5.4 g/dL.

And the gamma-GTP (6 h)?
The gamma-GTP was 1.4 IU/L.
